Results on 1 compound are retold here after PubChem BioAssay AID743297 (The Scripps Research Institute Molecular Screening Center, 2014).

Molecules are shown by their SMILES. Calls of active or inactive are those of the source.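 The calls were made as follows: active = IC50 against TDP2 at or below a set limit; inactive = IC50 above that limit.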

The target in this test is Tyrosyl-DNA phosphodiesterase 2 (Homo sapiens) (UniProt O95551). Put plainly: potency against TDP2 phosphodiesterase activity – biochemical, epi absorbance, IC50, dose response (AID 743297). The settings on record: recombinant TDP2, T5PNP hydrolysis, absorbance 415 nm.
Sequence of Tyrosyl-DNA phosphodiesterase 2 (Homo sapiens) (O95551 whole entry, looked up): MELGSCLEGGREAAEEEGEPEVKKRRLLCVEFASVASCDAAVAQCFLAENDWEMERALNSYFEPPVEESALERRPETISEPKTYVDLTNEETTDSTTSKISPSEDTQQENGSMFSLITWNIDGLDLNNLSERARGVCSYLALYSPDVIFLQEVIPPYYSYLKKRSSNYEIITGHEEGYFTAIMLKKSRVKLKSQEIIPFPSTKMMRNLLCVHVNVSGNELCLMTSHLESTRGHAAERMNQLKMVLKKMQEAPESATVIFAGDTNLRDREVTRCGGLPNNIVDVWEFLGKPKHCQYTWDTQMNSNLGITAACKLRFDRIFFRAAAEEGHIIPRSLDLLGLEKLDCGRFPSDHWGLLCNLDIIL

Regarding `C[c-]1[c-](C)[c-](C)[c-](C)[c-]1C.[Fe].c1cc2nccc(N3CCCC3)[c-]2c1` (stereo unspecified), the IC50 result was “inactive”.
